Assay results reported in ChEMBL document CHEMBL1154393, “Neuroprotective and cholinergic properties of multifunctional glutamic acid derivatives for the treatment of Alzheimer's disease” (J Med Chem, 2009).

How the values were obtained:
[1] = system: SH-SY5Y; experiment: Neuroprotective activity against human SH-SY5Y cells assessed as protection reduction in H2O2-induced LDH release at 30 uM after 24 hrs; format: functional; set-up: scale not given: the % may be the effect or the level left
[2] = target: T1, Acetylcholinesterase (Homo sapiens, UniProt P22303); experiment: Displacement of propidium iodide from AChE peripheral anionic site at 1 uM
[3] = target: T1, Acetylcholinesterase; experiment: Displacement of propidium iodide from AChE peripheral anionic site at 0.3 uM
[4] = in vitro; conditions: PAMPA
Description: Permeability across PAMPA membrane

[5] = target: T2, Acetylcholinesterase (Bos taurus, UniProt P23795)
T2 sequence (P23795 whole entry): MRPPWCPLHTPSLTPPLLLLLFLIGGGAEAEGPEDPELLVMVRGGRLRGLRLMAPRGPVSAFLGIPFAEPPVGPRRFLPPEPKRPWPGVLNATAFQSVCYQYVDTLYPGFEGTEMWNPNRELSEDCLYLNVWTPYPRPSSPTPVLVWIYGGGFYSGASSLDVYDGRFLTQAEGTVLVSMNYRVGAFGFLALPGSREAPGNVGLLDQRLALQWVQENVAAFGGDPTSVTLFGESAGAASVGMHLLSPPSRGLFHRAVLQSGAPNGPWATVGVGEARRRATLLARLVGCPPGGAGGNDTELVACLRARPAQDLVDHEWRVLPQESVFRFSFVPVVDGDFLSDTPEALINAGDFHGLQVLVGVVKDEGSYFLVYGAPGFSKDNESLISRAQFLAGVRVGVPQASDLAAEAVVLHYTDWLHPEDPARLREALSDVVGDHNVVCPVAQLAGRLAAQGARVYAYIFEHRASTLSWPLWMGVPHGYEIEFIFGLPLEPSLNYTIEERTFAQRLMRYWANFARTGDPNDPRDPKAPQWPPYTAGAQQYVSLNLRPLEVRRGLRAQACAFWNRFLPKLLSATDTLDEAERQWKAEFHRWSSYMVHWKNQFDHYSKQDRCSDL
Description: Inhibition of AChE in bovine erythrocyte by Ellman method

[6] = target: Cholinesterase (Homo sapiens, UniProt P06276); experiment: Inhibition of human BuChE in serum; format: cell-free
[7] = system: SH-SY5Y; experiment: Neuroprotective activity against human SH-SY5Y cells assessed as protection reduction in H2O2-induced LDH release at 10 uM after 24 hrs; format: functional; set-up: scale not given: the % may be the effect or the level left
[8] = target: Cholinesterase (Equus caballus, UniProt P81908)
Description: Inhibition of BuChE in horse serum by Ellman method

[9] = target: T1, Acetylcholinesterase; experiment: Displacement of propidium iodide from AChE peripheral anionic site at 3 uM
[10] = target: T1, Acetylcholinesterase
Description: Inhibition of human AChE in erythrocyte

[11] = system: SH-SY5Y; experiment: Neuroprotective activity against human SH-SY5Y cells assessed as protection reduction in H2O2-induced LDH release at 1 uM after 24 hrs; format: functional; set-up: scale not given: the % may be the effect or the level left
[12] = system: SH-SY5Y; experiment: Neuroprotective activity against H2O2-induced human SH-SY5Y cells assessed as cell viability at 30 uM after 24 hrs; format: functional; conditions: read-out: Activity
[13] = system: SH-SY5Y; experiment: Neuroprotective activity against human SH-SY5Y cells assessed as protection reduction in H2O2-induced LDH release at 3 uM after 24 hrs; format: functional; set-up: scale not given: the % may be the effect or the level left
[14] = system: SH-SY5Y; experiment: Neuroprotective activity against human SH-SY5Y cells assessed as cytoprotection at 0.1 uM coincubated with rotenone/oligomycin A measured after 24 hrs; format: functional
[15] = system: SH-SY5Y; experiment: Neuroprotective activity against human SH-SY5Y cells assessed as cytoprotection at 0.3 uM coincubated with rotenone/oligomycin A measured after 24 hrs; format: functional
[16] = system: SH-SY5Y; experiment: Neuroprotective activity against rotenone/oligomycin A-treated human SH-SY5Y cells assessed as cytoprotection at 0.3 uM pretreated 24 hrs before rotenone/oligomycin A challenge; format: functional
[17] = system: SH-SY5Y; experiment: Neuroprotective activity against human SH-SY5Y cells assessed as cytoprotection at 1 uM coincubated with rotenone/oligomycin A measured after 24 hrs; format: functional
[18] = system: SH-SY5Y; experiment: Neuroprotective activity against rotenone/oligomycin A-treated human SH-SY5Y cells assessed as cytoprotection at 0.1 uM pretreated 24 hrs before rotenone/oligomycin A challenge; format: functional
[19] = system: SH-SY5Y; experiment: Neuroprotective activity against rotenone/oligomycin A-treated human SH-SY5Y cells assessed as cytoprotection at 1 uM pretreated 24 hrs before rotenone/oligomycin A challenge; format: functional
[20] = system: SH-SY5Y; experiment: Neuroprotective activity against human SH-SY5Y cells assessed as cytoprotection at 3 uM coincubated with rotenone/oligomycin A measured after 24 hrs; format: functional
[21] = system: SH-SY5Y; experiment: Neuroprotective activity against rotenone/oligomycin A-treated human SH-SY5Y cells assessed as cytoprotection at 3 uM pretreated 24 hrs before rotenone/oligomycin A challenge; format: functional

Sequence of Cholinesterase (Equus caballus, UniProt P81908) (P81908 whole entry): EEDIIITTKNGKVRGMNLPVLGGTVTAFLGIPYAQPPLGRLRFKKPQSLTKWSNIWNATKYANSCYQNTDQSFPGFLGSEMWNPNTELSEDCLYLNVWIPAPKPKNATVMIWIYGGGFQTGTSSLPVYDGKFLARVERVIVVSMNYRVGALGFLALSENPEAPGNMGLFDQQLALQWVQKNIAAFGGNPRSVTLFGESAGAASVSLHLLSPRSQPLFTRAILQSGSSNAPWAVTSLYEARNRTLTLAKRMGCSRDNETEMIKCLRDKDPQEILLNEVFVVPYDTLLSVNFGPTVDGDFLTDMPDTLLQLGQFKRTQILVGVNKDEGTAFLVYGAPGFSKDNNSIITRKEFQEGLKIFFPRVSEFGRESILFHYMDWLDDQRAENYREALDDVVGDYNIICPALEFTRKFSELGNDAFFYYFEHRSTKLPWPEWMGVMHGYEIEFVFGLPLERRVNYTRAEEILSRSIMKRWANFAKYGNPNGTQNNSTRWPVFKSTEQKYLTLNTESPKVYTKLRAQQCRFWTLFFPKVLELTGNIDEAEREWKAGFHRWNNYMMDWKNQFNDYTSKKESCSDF
Sequence of Cholinesterase (Homo sapiens, UniProt P06276) (P06276 whole entry): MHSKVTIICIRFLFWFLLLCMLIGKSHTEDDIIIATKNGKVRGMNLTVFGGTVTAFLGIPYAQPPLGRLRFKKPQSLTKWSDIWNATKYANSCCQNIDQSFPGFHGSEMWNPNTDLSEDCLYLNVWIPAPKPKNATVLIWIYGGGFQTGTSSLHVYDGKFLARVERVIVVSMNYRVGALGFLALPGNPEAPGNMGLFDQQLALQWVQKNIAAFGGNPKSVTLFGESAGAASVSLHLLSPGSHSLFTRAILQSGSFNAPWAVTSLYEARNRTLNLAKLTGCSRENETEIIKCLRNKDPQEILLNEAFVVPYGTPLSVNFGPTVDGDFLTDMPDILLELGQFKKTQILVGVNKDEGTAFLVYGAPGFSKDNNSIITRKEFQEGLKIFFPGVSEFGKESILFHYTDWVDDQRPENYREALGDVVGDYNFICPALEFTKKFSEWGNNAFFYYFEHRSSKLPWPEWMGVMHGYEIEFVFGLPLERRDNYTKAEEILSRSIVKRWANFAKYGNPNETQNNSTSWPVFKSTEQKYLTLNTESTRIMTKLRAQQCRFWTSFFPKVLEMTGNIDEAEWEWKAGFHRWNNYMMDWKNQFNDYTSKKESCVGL
T1 sequence (P22303 whole entry): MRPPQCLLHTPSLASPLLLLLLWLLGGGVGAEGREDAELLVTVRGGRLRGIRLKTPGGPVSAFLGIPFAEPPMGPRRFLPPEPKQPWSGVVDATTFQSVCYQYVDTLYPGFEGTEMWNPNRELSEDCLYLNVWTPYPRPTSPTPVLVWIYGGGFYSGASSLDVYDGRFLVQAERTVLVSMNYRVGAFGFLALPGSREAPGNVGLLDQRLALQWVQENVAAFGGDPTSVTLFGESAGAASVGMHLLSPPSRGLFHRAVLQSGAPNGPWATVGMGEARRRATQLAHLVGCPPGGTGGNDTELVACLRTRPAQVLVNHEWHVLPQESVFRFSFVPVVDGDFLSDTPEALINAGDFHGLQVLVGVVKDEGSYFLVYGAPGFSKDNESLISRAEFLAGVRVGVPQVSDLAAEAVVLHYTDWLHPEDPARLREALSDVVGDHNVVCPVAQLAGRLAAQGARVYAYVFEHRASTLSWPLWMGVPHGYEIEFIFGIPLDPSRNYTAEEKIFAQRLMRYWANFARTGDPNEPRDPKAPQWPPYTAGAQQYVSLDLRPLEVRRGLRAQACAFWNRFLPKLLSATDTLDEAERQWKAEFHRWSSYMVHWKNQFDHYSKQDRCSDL

CCCCCCOC(=O)[C@H](CCC(=O)NCCC1CCN(Cc2ccccc2)CC1)NC(=O)c1cc2ccccc2s1
Activity [1]: 17.9% | Activity [2]: 26.5% | Activity [3]: 31.5% | Papp [4]: 25.6 ×10⁻⁶ cm/s | IC50 [5]: 2500 nM | IC50 [6]: 330 nM | Activity [7]: 21.2% | IC50 [8]: 550 nM | Activity [9]: 39.7% | IC50 [10]: 270 nM | Activity [11]: 28.7% | viability at 30 µM [12]: 100% | Activity [13]: 20.9%

CCCCCCOC(=O)[C@H](CCC(=O)NCCC1CCN(Cc2ccccc2)CC1)NC(=O)OC(C)(C)C
Activity [1]: 0% | Activity [2]: 43.6% | Activity [3]: 42.3% | Papp [4]: 11.6 ×10⁻⁶ cm/s | IC50 [5]: 5000 nM | IC50 [6]: 3000 nM | Activity [7]: 0% | IC50 [8]: 3500 nM | Activity [9]: 42% | IC50 [10]: 950 nM | Activity [11]: 24.9% | viability at 30 µM [12]: 100% | Activity [13]: 1.7%

CCCCCCOC(=O)[C@H](CCC(=O)NCCC1CCN(Cc2ccccc2)CC1)NC(=O)c1cccs1
Activity [1]: 31.8% | Activity [2]: 10.3% | Activity [3]: 7.5% | Activity [14]: 0% | Activity [15]: 0% | Papp [4]: 20.9 ×10⁻⁶ cm/s | IC50 [5]: 3500 nM | IC50 [6]: 1800 nM | Activity [7]: 73% | IC50 [8]: 1000 nM | Activity [16]: 27.1% | Activity [9]: 15% | IC50 [10]: 500 nM | Activity [17]: 7% | Activity [18]: 48.9% | Activity [11]: 55.1% | Activity [19]: 22.3% | viability at 30 µM [12]: 100% | Activity [13]: 64.5%

CCCCCCOC(=O)[C@H](CCC(=O)NCCC1CCN(Cc2ccccc2)CC1)NC(=O)c1ccccc1
Activity [1]: 67% | Activity [2]: 15.9% | Activity [3]: 24.7% | Activity [15]: 20.1% | Papp [4]: 18.7 ×10⁻⁶ cm/s | Activity [20]: 15.1% | IC50 [5]: 1900 nM | IC50 [6]: 1750 nM | Activity [7]: 52.4% | IC50 [8]: 1500 nM | Activity [16]: 47.9% | Activity [9]: 37.3% | IC50 [10]: 530 nM | Activity [17]: 21% | Activity [11]: 43.9% | Activity [21]: 38.5% | Activity [19]: 43.8% | viability at 30 µM [12]: 100% | Activity [13]: 68.1%

C=CC[N+](C)(C)c1ccc(CCC(=O)CCc2ccc([N+](C)(C)CC=C)cc2)cc1
Activity [9]: 16%

CCCCCCOC(=O)[C@H](CCC(=O)NCCC1CCN(Cc2ccccc2)CC1)NC(=O)OCc1ccccc1
Activity [1]: 5.3% | Activity [2]: 25% | Activity [3]: 20.8% | IC50 [5]: 1400 nM | IC50 [6]: 730 nM | Activity [7]: 39.1% | IC50 [8]: 750 nM | Activity [9]: 29.3% | IC50 [10]: 250 nM | Activity [11]: 4.1% | viability at 30 µM [12]: 100% | Activity [13]: 17.4%

Cc1c(C)c2c(c(C)c1O)CCC(C)(C(=O)O)O2 (centres undefined) [TROLOX]
Activity [1]: 57.7% | Activity [20]: 63.7% | Activity [11]: 0% | Activity [21]: 65.1% | Activity [13]: 0%

CCCCCCOC(=O)[C@H](CCC(=O)NCCC1CCN(Cc2ccccc2)CC1)NC(=O)Cc1cc2ccc(Cl)cc2s1
Activity [1]: 0% | Activity [2]: 16% | Activity [3]: 14.7% | IC50 [5]: 2300 nM | IC50 [6]: 70 nM | Activity [7]: 0% | IC50 [8]: 50 nM | Activity [9]: 23.4% | IC50 [10]: 100 nM | Activity [11]: 26.2% | viability at 30 µM [12]: 100% | Activity [13]: 32.5%

CCCCCCOC(=O)[C@H](CCC(=O)NCCC1CCN(Cc2ccccc2)CC1)NC(=O)c1cc(Br)cs1
Activity [1]: 66.7% | Activity [2]: < 0.5% | Activity [3]: 11.3% | Activity [15]: 19.7% | Activity [20]: 19.6% | IC50 [5]: 1200 nM | IC50 [6]: 850 nM | Activity [7]: 66.7% | IC50 [8]: 750 nM | Activity [16]: 19% | Activity [9]: < 0.5% | IC50 [10]: 180 nM | Activity [17]: 0% | Activity [11]: 63.3% | Activity [21]: 21.4% | Activity [19]: 27.8% | viability at 30 µM [12]: 100% | Activity [13]: 84.3%

CCCCCCOC(=O)[C@H](CCC(=O)NCCC1CCN(Cc2ccccc2)CC1)NC(=O)c1cc2cccnc2s1
Activity [1]: 48.8% | Activity [2]: 35.4% | Activity [3]: 37.4% | Papp [4]: 18.8 ×10⁻⁶ cm/s | IC50 [5]: 330 nM | IC50 [6]: 830 nM | Activity [7]: 27.9% | IC50 [8]: 950 nM | Activity [9]: 27.2% | IC50 [10]: 440 nM | Activity [11]: 0% | viability at 30 µM [12]: 100% | Activity [13]: 30.7%

CCCCCCOC(=O)[C@H](CCC(=O)NCCC1CCN(Cc2ccccc2)CC1)NC(=O)c1cc2ccsc2s1
Activity [1]: 20.3% | Activity [2]: 33.3% | Activity [3]: 42.2% | Activity [14]: 22.3% | Activity [15]: 20.8% | Papp [4]: 28.5 ×10⁻⁶ cm/s | IC50 [5]: 3500 nM | IC50 [6]: 350 nM | Activity [7]: 46.4% | IC50 [8]: 700 nM | Activity [16]: 46.1% | Activity [9]: 23.3% | IC50 [10]: 300 nM | Activity [17]: 30.8% | Activity [18]: 34.8% | Activity [11]: 54.5% | Activity [19]: 45.4% | viability at 30 µM [12]: 100% | Activity [13]: 41.6%
